Tests used:
eIF4AIf [1] = biological target: T1, eIF4AIf (Mus musculus, UniProt P60843); assay: UV crosslinking of alpha-32P-ATP to recombinant eIF4AIf; format: binding, murine; conditions: 50 μM
T1 construct: inferred only from the Ni-NTA purification; made in house; host or cells: Escherichia coli BL21 (DE3) codon+
Method: (§1) FIG. 7. Effects of hippuristanol on ATP hydrolysis, ATP binding, and RNA binding activities of eIF4A. A. Hippuristanol inhibits eIF4AIf RNA-dependent ATPase activity. The rate of ATP hydrolysis as a function of hippuristanol concentration is plotted relative to the rate obtained in the presence of vehicle (0.5% DMSO). ATP hydrolysis was measured in the presence of 2.5 μM poly (U) and monitored by thin layer chromatography. […] Samples were resolved by SDS-PAGE and subjected to autoradiography. C. The RNA binding activity of eIF4AIf is inhibited by hippuristanol. Oxidized ^32P-cap labeled CAT mRNA was incubated with recombinant eIF4AIf in the absence (lane 2) or presence of ATP (lanes 1, 3-6), 0.6 mM m^7GDP (lane 3), 0.6 mM GDP (lane 4), or 50 μM hippuristanol (lane 6). Following treatment with RNase A, samples were resolved by SDS-PAGE and subjected to autoradiography. The asterisk denotes the position of migration of a ˜30 kDa contaminant in the recombinant eIF4AIf preparation used as an internal loading reference. D. The RNA binding activity of eIF4Ac is inhibited by hippuristanol. Oxidized ^32P-cap labeled CAT mRNA was incubated with 0.7 μg of native eIF4F in the absence (lane 1) or presence (lane 2) of 50 μM hippuristanol. […]
(§2) Recombinant eIF4AI Purification and Assays. […] Quantifications were performed on a Fujix BAS2000 phosphoimager with a Fuji imaging screen. […]

eIF4Ac = eIF4Ac (Homo sapiens, UniProt P60842); assay: Crosslinking of oxidized 32P-cap labeled CAT mRNA to native eIF4F (RNA binding); conditions: 50 μM, 0.7 μg native eIF4F
Method: as §1
(§3) Ribosome Binding and mRNA Crosslinking. […] Fractions of 500 μl were collected and radioactivity was determined by scintillation counting. […]

eIF4Ac and eIF4B = biological target: T2, eIF4Ac and eIF4B (Homo sapiens, UniProt P60842); assay: Chemical crosslinking of initiation factors to 32P cap-labeled mRNA; format: binding; conditions: 50 μM, in presence of ATP
T2 construct: Chemical crosslinking of initiation factor preparations to ^32P cap-labeled oxidized CAT mRNA
Method: FIG. 6. Hippuristanol inhibits translation initiation. A. Hippuristanol inhibits 80S complex formation. ^32P-labeled CAT mRNA was incubated in rabbit reticulocyte lysate with cycloheximide (CHX) in the presence or absence of 50 μM hippuristanol. Complexes were resolved on glycerol gradients. Total counts recovered from each gradient and the percent mRNA bound in 80S complexes were: CAT mRNA/CHX [43,498 cpm, 22% binding] and CAT mRNA/CHX+Hipp. [45,279 cpm, 5.7% binding]. B. Hippuristanol inhibits crosslinking of eIF4Ac and eIF4B to capped mRNA. Initiation factors were chemically crosslinked to ^32P cap-labeled mRNA in the absence (lane 2) or presence of ATP (lanes 1, 3-6), 0.6 mM m^7GDP (lane 3), 0.6 mM GDP (lane 4), or 50 μM hippuristanol (lane 6). Following nuclease digestion, samples were resolved by SDS-PAGE and the gel subjected to autoradiography.
Ribosome Binding and mRNA Crosslinking. Ribosome binding assays were performed by incubating ^32P-labelled CAT mRNA in rabbit reticulocyte lysate or wheat germ extracts in the presence of: 600 μM cycloheximide (CHX), 1 mM GMP-PNP, and/or 50 μM hippuristanol or vehicle for 10 min (33). […] Fractions of 500 μl were collected and radioactivity was determined by scintillation counting. […]

eIF4AIf [2] = biological target: T1, eIF4AIf; assay: RNA-dependent ATPase assay with recombinant eIF4AIf; format: biochemical, murine; conditions: 2.5 μM poly (U); relative to vehicle (0.5% DMSO)
Method: as §1, §2

[3] = tested on: Mahoney strain of poliovirus type 1; format: cell-based; conditions: HeLa cells, 2 pfu/cell, 80 nM
[4] = tested on: in vitro splicing reactions; assay: In vitro splicing of AdML pre-mRNA in nuclear extracts; format: biochemical; conditions: 2 μM, 10 μM and 50 μM
Method: FIG. 8. Selective inhibition of eIF4A activity by hippuristanol. A. Hippuristanol inhibits eIF4AIf-mediated helicase activity. Unwinding reactions were performed with RNA-1/RNA-11 duplex and recombinant eIF4AIf or Ded1p. The presence of 50 μM hippuristanol in the reaction is indicated above the panel. […] Double-stranded RNA duplex and single-stranded RNA molecules are schematically represented to the left of the panel. […] In vitro splicing reactions were performed with the AdML pre-mRNAs as previously described (48). AdML pre-mRNA was incubated with nuclear extracts in the presence of increasing amounts of hippuristanol (2 μM [lane4], 10 μM [lane 5] and 50 μM [lane 6]). Reaction products were resolved on 15% polyacrylamide/8M urea gels and subjected to autoradiography. The position of migration of the pre-mRNA and spliced product is denoted to the right. C. Rescue of hippuristanol-induced inhibition with recombinant eIF4AIf. […] A graphical representation from three experiments is provided below. Translational efficiency was calculated relative to luciferase values obtained from control translations containing vehicle (0.5% DMSO).

eIF4AIf [5] = biological target: T1, eIF4AIf; assay: Crosslinking of oxidized 32P-cap labeled CAT mRNA to recombinant eIF4AIf (RNA binding); design: species or system murine; conditions: 50 μM
Method: as §1, §3

T1 sequence (P60843 whole entry): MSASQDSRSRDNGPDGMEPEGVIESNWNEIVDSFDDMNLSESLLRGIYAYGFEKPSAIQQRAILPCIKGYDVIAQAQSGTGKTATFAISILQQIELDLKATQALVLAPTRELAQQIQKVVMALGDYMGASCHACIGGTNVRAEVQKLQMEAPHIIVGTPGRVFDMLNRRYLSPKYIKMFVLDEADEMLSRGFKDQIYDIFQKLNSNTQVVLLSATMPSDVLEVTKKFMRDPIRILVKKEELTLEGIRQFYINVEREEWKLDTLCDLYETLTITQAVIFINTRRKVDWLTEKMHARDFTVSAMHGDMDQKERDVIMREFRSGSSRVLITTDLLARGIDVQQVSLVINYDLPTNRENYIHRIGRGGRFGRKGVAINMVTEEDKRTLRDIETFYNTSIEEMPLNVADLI
eIF4Ac, sequence (P60842 whole entry): as the sequence (P60843 whole entry) above
eIF4Ac, sequence (P06730 whole entry partner): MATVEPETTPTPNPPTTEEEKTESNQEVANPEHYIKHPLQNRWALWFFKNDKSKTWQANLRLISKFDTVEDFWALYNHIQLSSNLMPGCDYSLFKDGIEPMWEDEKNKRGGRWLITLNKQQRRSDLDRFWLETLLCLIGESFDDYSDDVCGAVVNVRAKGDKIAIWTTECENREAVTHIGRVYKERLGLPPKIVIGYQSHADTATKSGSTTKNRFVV
eIF4Ac, sequence (Q04637 whole entry partner): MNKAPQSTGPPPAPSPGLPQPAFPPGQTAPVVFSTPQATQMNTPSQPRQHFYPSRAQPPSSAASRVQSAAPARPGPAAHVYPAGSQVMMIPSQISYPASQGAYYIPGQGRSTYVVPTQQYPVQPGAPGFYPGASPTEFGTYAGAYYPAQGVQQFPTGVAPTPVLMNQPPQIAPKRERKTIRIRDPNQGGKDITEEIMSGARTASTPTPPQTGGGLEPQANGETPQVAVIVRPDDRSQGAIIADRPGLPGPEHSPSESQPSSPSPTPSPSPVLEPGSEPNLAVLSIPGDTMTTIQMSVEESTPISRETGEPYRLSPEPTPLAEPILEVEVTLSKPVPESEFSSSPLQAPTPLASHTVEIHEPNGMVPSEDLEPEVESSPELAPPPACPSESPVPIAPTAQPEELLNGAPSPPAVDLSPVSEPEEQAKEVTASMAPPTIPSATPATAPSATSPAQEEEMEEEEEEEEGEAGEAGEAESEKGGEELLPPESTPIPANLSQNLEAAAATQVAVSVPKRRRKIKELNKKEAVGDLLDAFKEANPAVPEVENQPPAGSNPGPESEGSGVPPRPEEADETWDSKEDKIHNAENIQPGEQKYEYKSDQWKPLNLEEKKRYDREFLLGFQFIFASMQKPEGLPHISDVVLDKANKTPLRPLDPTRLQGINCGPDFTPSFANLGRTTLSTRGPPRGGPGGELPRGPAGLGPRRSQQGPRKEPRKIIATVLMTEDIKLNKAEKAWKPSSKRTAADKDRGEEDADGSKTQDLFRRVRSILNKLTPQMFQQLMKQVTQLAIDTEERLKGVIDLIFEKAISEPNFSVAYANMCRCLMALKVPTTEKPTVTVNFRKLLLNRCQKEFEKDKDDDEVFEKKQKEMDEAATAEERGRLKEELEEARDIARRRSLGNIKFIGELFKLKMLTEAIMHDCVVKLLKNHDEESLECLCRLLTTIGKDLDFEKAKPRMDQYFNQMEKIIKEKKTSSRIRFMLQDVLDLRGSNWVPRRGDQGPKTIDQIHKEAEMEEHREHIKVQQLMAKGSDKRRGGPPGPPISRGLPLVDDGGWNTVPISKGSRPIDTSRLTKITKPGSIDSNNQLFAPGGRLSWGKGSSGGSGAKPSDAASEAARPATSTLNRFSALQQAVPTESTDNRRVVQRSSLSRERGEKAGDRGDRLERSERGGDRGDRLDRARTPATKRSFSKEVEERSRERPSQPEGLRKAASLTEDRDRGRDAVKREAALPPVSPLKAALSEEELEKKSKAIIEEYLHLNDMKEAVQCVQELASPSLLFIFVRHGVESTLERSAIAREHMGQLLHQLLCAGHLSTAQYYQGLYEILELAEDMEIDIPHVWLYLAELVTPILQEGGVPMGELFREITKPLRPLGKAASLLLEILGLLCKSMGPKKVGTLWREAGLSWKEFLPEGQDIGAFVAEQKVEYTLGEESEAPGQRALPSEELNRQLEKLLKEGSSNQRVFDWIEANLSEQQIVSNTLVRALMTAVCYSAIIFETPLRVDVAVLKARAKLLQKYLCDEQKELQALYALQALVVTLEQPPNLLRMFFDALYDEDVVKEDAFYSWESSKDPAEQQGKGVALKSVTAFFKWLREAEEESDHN
T2 sequence (P60842 whole entry): as the sequence (P60843 whole entry) above
T2 sequence (Q04637 whole entry partner): as the sequence (Q04637 whole entry partner) above
T2 sequence (P06730 whole entry partner): as the sequence (P06730 whole entry partner) above

SMILES: C[C@H]1C[C@@]2(O[C@H]3C[C@H]4[C@@H]5CC[C@H]6C[C@H](O)CC[C@]6(C)[C@H]5[C@@H](O)C[C@]4(C)[C@H]3[C@@]2(C)O)OC1(C)C [Hippuristanol, hippuristanol]
- ATP crosslinking to eIF4AIf (eIF4AIf [1]): does not affect
- RNA binding activity of eIF4Ac (eIF4Ac): inhibited
- crosslinking of eIF4Ac and eIF4B to capped mRNA (eIF4Ac and eIF4B): inhibits
- eIF4AIf RNA-dependent ATPase activity (eIF4AIf [2]): inhibits
- eIF4GII cleavage following poliovirus infection [3]: delays
- onset of poliovirus proteins during infection [3]: delays
- in vitro splicing reactions [4]: does not inhibit
- RNA binding activity of eIF4AIf (eIF4AIf [5]): inhibited
